Source: paper PMC9029360, “Cyclooxygenase-Inhibiting Platinum(IV) Prodrugs with Potent Anticancer Activity” (Pharmaceutics, 2022)
Like-named read-outs stand apart in the source and are kept apart here.

What was measured:
[1] = system: A2780 ovarian; assay: In vitro cytotoxicity MTT assay, A2780 ovarian; format: cell-based; conditions: 72 h drug exposure, n = 3
[2] = system: A431 skin; assay: In vitro cytotoxicity MTT assay, A431 skin; format: cell-based; conditions: n = 3
[3] = system: SJ-G2 glioblastoma; assay: In vitro cytotoxicity MTT assay, SJ-G2 glioblastoma; format: cell-based; conditions: 72 h drug exposure, n = 3
[4] = system: HT29 colon cancer cell line; assay: In vitro cytotoxicity MTT assay, HT29 colon; format: cell-based; conditions: n = 3
[5] = system: H460 lung; assay: In vitro cytotoxicity MTT assay, H460 lung; format: cell-based; conditions: n = 3
[6] = system: MCF10A breast cell line (non-tumour derived); assay: In vitro cytotoxicity MTT assay, non-tumour MCF10A breast; format: cell-based; conditions: MCF10A (non-cancerous), 72 h drug exposure, n = 3
[7] = system: MIA pancreas; assay: In vitro cytotoxicity MTT assay, MIA pancreas; format: cell-based; conditions: 72 h drug exposure, n = 3
[8] = system: cisplatin-resistant ADDP ovarian (subclone of A2780 cell line); assay: In vitro cytotoxicity MTT assay, cisplatin-resistant ADDP ovarian; format: cell-based; conditions: ADDP (cisplatin-resistant), MTT, 72 h drug exposure, n = 3
[9] = system: U87 glioblastoma; assay: In vitro cytotoxicity MTT assay, U87 glioblastoma; format: cell-based; conditions: 72 h drug exposure, n = 3
[10] = system: BE2-C neuroblastoma; assay: In vitro cytotoxicity MTT assay, BE2-C neuroblastoma; format: cell-based; conditions: 72 h drug exposure, n = 3
[11] = system: MCF-7 breast; assay: In vitro cytotoxicity MTT assay, MCF-7 breast; format: cell-based; conditions: n = 3
[12] = system: Du145 prostate cancer cell line; assay: In vitro cytotoxicity MTT assay, Du145 prostate; format: cell-based; conditions: n = 3
[13] = system: U87 glioblastoma; conditions: MTT, 72 h, cited from earlier work
[14] = system: HT29 colon cancer cell line; conditions: MTT, 72 h, cited from earlier work
[15] = system: H460 lung; conditions: MTT, 72 h, cited from earlier work
[16] = system: MCF-7 breast; conditions: MTT, 72 h, cited from earlier work
[17] = system: MCF10A breast cell line (non-tumour derived); conditions: MTT, 72 h, cited from earlier work
[18] = system: Du145 prostate cancer cell line; conditions: MTT, 72 h, cited from earlier work
[19] = system: A2780 ovarian; conditions: MTT, 72 h, cited from earlier work
[20] = system: MIA pancreas; conditions: MTT, 72 h, cited from earlier work
[21] = system: BE2-C neuroblastoma; conditions: MTT, 72 h, cited from earlier work
[22] = system: A431 skin; conditions: MTT, 72 h, cited from earlier work
[23] = system: cisplatin-resistant ADDP ovarian (subclone of A2780 cell line); conditions: MTT, 72 h, ref [2] Macias et al., Eur. J. Chem. 2015; cited from earlier work
[24] = system: SJ-G2 glioblastoma; conditions: MTT, 72 h, cited from earlier work
[25] = Lipophilicity by RP-HPLC (log kw); format: physicochemical; conditions: capacity factor extrapolated to 100% water
Protocol: HPLC experiments were executed on an Agilent (Melbourne, Australia) Technologies 1260 Infinity instrument equipped with a Phenomenex (Sydney, Australia) Onyx^TM Monolithic C18 reverse phase column (100 × 4.6 mm, 130 Å). The mobile phase was comprised of 0.06% TFA in water (solvent A) and 0.06% TFA in an acetonitrile-water mixture (9:1) (solvent B). A sample injection volume of 10 µL was used at a flow rate of 1 mL/min and eluted over a gradient of 0–100% for 15 min. A PDA was used to detect the eluting peaks at 254 nm. Lipophilicity experiments to determine logkw values were undertaken following previously published methods. Rather than a gradient, different isocratic ratios ranging from 28–56% of solvent B were employed and the retention times measured for each complex. Potassium iodide was used as an external dead volume marker to determine the dead time of the column. The following equation was used to calculate the capacity factors:(1) k=tr−t0/t0 where k is the capacity factor, tr is the retention time of the analyte, and t0 is the dead time. Following this, log k was plotted against the percentage of ACN. Five different concentrations of ACN were used to produce a linear plot comprised of R^2 > 0.99. This graph produced the following equation:(2) logk=Sφ+logkw where S is the slope, φ is the % ACN, and the y-intercept, represented as logkw , is the capacity factor of the compound in 100% water.
Lipophilicity studies were carried out to determine the logkw of each complex. This was ascertained through a RP-HPLC based approach whereby complexes were eluted at several isocratic ratios. In turn, retention times were employed as in Equation (1), where the capacity factor (k) was calculated. The log k value at each ratio was then plotted against the percentage of the organic solvent used in solvent B, producing a linear equation that allowed for logkw to be extrapolated (Figure S43). The logkw value represents the retention factor in a 100% aqueous solution; thus, higher values indicate more lipophilic compounds. While this method for determining lipophilicity is slightly different from the shake-flask method, it has been used previously to compare a series of complexes that are structurally similar and is fitting for this group of complexes.

[26] = ref [2] Macias et al., Eur. J. Chem. 2015
[27] = ref [1] Deo et al., Dalton Trans. 2019

Compound	GI50 [1] [µM]	GI50 ([2]; 72 h drug exposure) [µM]	GI50 [3] [µM]	GI50 ([4]; 72 h drug exposure) [µM]	GI50 ([5]; 72 h drug exposure) [µM]	GI50 [6] [µM]	GI50 [7] [µM]	GI50 [8] [µM]	GI50 [9] [µM]	GI50 [10] [µM]	GI50 ([11]; 72 h drug exposure) [µM]	GI50 ([12]; 72 h drug exposure) [µM]	Log kw [25]	further results
Cc1c(C)c2cccnc2c2ncccc12.N[C@H]1CCCC[C@@H]1N.[Cl-].[Cl-].[Pt+2] [56MESS(II)]	0.039 ± 0.0077	0.036 ± 0.011	0.15	0.015 ± 0.0062	0.028 ± 0.0047	0.025 ± 0.01	0.022	0.027 ± 0.0041	0.076 ± 0.0087	0.086 ± 0.003	0.033 ± 0.012	0.01 ± 0.0013		
Cc1c(C)c2cccnc2c2ncccc12.N[C@H]1CCCC[C@@H]1N.O=[N+]([O-])[O-].O=[N+]([O-])[O-].[OH-].[OH-].[Pt+4] [56MESS(IV)]	0.056 ± 0.0071	0.12 ± 0.022	0.21 ± 0.045	0.036 ± 0.007	0.19 ± 0.15	0.061 ± 0.0073	0.043 ± 0.0025	0.17 ± 0.12	0.19 ± 0.023	0.24 ± 0.022	0.48 ± 0.14	0.015 ± 0.0026		
N.N.O=C([O-])C1(C(=O)[O-])CCC1.[Pt+2] [Carboplatin, carboplatin]														GI50 [13, 26]: > 50 µM; GI50 [14, 26]: > 50 µM; GI50 [15, 26]: 14 ± 1 µM; GI50 [16, 26]: > 50 µM; GI50 [17, 26]: > 50 µM; GI50 [18, 26]: 14.7 µM; GI50 [19, 26]: 9.2 ± 2.9 µM; GI50 [20, 26]: > 50 µM; GI50 [21, 26]: 18.7 µM; GI50 [22, 26]: 24.3 µM; GI50 [23]: > 50 µM; GI50 [24, 26]: 5.7 µM
COc1ccc2c(c1)c(CC(=O)O)c(C)n2C(=O)c1ccc(Cl)cc1 [Indomethacin, indomethacin]			> 50				> 50		> 50					GI50 ([1]; Homo sapiens): 5.7 ± 0.8 µM; GI50 ([2]; Homo sapiens, A-431, 72 h drug exposure): > 50 µM; GI50 ([4]; Homo sapiens, HT-29, 72 h drug exposure): > 50 µM; GI50 ([5]; Homo sapiens, NCI-H460, 72 h drug exposure): > 50 µM; GI50 ([6]; Homo sapiens, MCF-10A): > 50 µM; GI50 ([8]; Homo sapiens, A2780): > 50 µM; GI50 ([10]; Homo sapiens, BE(2)-C): > 50 µM; GI50 ([11]; Homo sapiens, MCF7, 72 h drug exposure): > 50 µM; GI50 ([12]; Homo sapiens, DU-145, 72 h drug exposure): > 50 µM
O=C1[O][Pt]2([NH][C@@H]3CCCC[C@H]3[NH]2)[O]C1=O [Oxaliplatin, oxaliplatin]														GI50 [13, 26]: 1.8 ± 0.2 µM; GI50 [14, 26]: 0.9 ± 0.2 µM; GI50 [15, 26]: 1.6 ± 0.1 µM; GI50 [16, 26]: 0.5 ± 0.1 µM; GI50 [18, 26]: 2.9 ± 0.4 µM; GI50 [19, 26]: 0.16 µM; GI50 [20, 26]: 0.9 µM; GI50 [21, 26]: 0.9 ± 0.2 µM; GI50 [22, 26]: 4.1 ± 0.5 µM; GI50 [23]: 0.822 ± 0.13 µM; GI50 [24, 26]: 3 ± 1.2 µM
N[C@H]1CCCC[C@@H]1N.[Cl-].[Cl-].[Pt+2].c1cnc2c(c1)ccc1cccnc12 [PHENSS(II)]	0.29 ± 0.037	0.34 ± 0.1	0.44 ± 0.055	0.087 ± 0.027	0.3 ± 0.032	0.24 ± 0.06	0.24 ± 0.022	0.23 ± 0.049	1.2 ± 0.34	0.39 ± 0.06	0.25 ± 0.041	0.11 ± 0.027		
N[C@H]1CCCC[C@@H]1N.O=[N+]([O-])[O-].O=[N+]([O-])[O-].[OH-].[OH-].[Pt+4].c1cnc2c(c1)ccc1cccnc12 [PHENSS(IV)]														GI50 [13, 27]: 4.9 ± 0.61 µM; GI50 [14, 27]: 0.71 ± 0.3 µM; GI50 [15, 27]: 1.7 ± 0.2 µM; GI50 [16, 27]: 16 µM; GI50 [17, 27]: 1.7 µM; GI50 [18, 27]: 0.31 ± 0.092 µM; GI50 [19, 27]: 0.8 ± 0.084 µM; GI50 [20, 27]: 3.4 µM; GI50 [21, 27]: 3 ± 0.53 µM; GI50 [22, 27]: 4.3 ± 0.53 µM; GI50 [24, 27]: 1.7 µM
COc1ccc2c(c1)c(CC(=O)[O][Pt-2]13([OH])([NH2+]C4CCCCC4[NH2+]1)[n+]1cccc4ccc5ccc[n+]3c5c41)c(C)n2C(=O)c1ccc(Cl)cc1.O=[N+]([O-])[O-].O=[N+]([O-])[O-] (centres unmarked) [compound 1, [Pt(Phen)(SSDACH)(Indomethacin)(OH)](NO3)2]	0.39 ± 0.087	0.4 ± 0.084	0.97 ± 0.29	0.083 ± 0.04	0.37 ± 0.055	0.34 ± 0.1	0.33	0.35 ± 0.081			0.74 ± 0.23	0.16 ± 0.054	1.08	
COc1ccc2c(c1)c(CC(=O)[O][Pt-2]13([OH])([NH2+]C4CCCCC4[NH2+]1)[n+]1cccc4c(C)c(C)c5ccc[n+]3c5c41)c(C)n2C(=O)c1ccc(Cl)cc1.O=[N+]([O-])[O-].O=[N+]([O-])[O-] (centres unmarked) [compound 2, [Pt(56Me2Phen)(SSDACH)(Indomethacin)(OH)](NO3)2]	0.034 ± 0.0086	0.04 ± 0.014	0.17 ± 0.019	0.013 ± 0.0036	0.022 ± 0.0042	0.023 ± 0.0082	0.021 ± 0.002	0.024 ± 0.0061	0.047 ± 0.0049	0.13 ± 0.041	0.037 ± 0.0023	0.0075 ± 0.0036	1.28	
CC(=O)Oc1ccccc1C(=O)[O-].Cc1c(C)c2cccnc2c2ncccc12.N[C@H]1CCCC[C@@H]1N.O=[N+]([O-])[O-].O=[N+]([O-])[O-].[OH-].[Pt+4] [compound 4, [Pt(56Me2Phen)(SSDACH)(Aspirin)(OH)](NO3)2]	0.022	0.031	0.063 ± 0.006	0.007 ± 0.001	0.015 ± 0.001	0.009 ± 0.002	0.008 ± 0.001	0.012	0.024	0.098 ± 0.021	0.036 ± 0.01	0.003	0.65	
